Patent US7727949B2, “Cleaning agent for thermostatic chambers” (Wako Pure Chemical Industries, Ltd., priority 2005, dated 2010)

What was measured:
Assay in all cases: Study of germicidal activity of agents in the presence of proteins
Assay type in all cases: cell-based
[1] = system: Pseudonas aeruginosa (NBRC12689); parameters: key to growth of the microorganism P.a: a case where growth of the microorganism on the surface of the medium was recognized is shown by +; a case where growth of the microorganism on the surface of the medium was not recognized is shown by −; conditions: for growth of the microorganism P.a: agent 50 μg/mL
Procedure: (§1) Didecyldimethylammonium adipate (DDAA), N-bis(3-aminopropyl)dodecylamine (TAA) and benzalkonium chloride were respectively prepared such that a concentration thereof is 1 w/w %.
(§2) GOT solution: GOT Substrate-Enzyme solution and GOT•L2α-KG solution which were components of L type Wako GOT•J2 kit (produced by Wako Pure Chemical Industries, Ltd.) were prepared with distilled water so as to become a 0.1 w/w % aqueous solution.
(§3) GPT solution: GOT Substrate-Enzyme solution and GOT•L2α-KG solution which were components of L type Wako GPT•J2 kit (produced by Wako Pure Chemical Industries, Ltd.) were prepared with distilled water so as to become a 0.1 w/w % aqueous solution.
(§4) Serum: Control Serum II Wako (produced by Wako Pure Chemical Industries, Ltd.) was prepared with distilled water so as to become a 0.1 w/w % aqueous solution.
(§5) i) The individual test microorganism, which was preliminarily cultured in bouillon medium in advance until 1×10^8 microorganisms/mL, were diluted with sterilized physiological saline for 100 times (to 1×10^6 microorganisms/mL) to obtain a solution of test microorganisms. ii) Into a 20 mL test tube made of glass which was preliminarily sterilized by dry-heat sterilization, the agent aqueous solution, the reagent solution and the solution of test microorganisms as prepared in the above described i) were added such that a final concentration of the agent become 50 μg/mL, a final concentration of the reagent become 100 μg/mL, and the number of test microorganisms become 1×10^5 microorganisms/mL, respectively, when a total volume thereof is prepared to be 10 mL. And then, the tube was sufficiently stirred. iii) After a lapse of predetermined times (5 min, 10 min, and 15 min), the solution as obtained in the above described ii) was smeared with a platinum loop on the surface of the nutrient agar plate medium preliminarily having been prepared, and the medium was cultured at 35° C.±2° C. for 24 hours. iv) After the cultivation, confirming the presence or not of the growth of the microorganisms on the surface of the medium was conducted. (3) Result
(§6) In Table 3, a case where growth of the microorganism on the surface of the medium was recognized is shown by +, and a case where growth of the microorganism on the surface of the medium was not recognized is shown by −, respectively.

[2] = system: Escherichia coli (NBRC3972); parameters: key: a case where growth of the microorganism on the surface of the medium was recognized is shown by +; a case where growth of the microorganism on the surface of the medium was not recognized is shown by −; conditions: agent 50 μg/mL
Procedure: as §1, §2, §3, §4, §5, §6

[3] = system: Bacillus subtilis (NBRC13719); parameters: key: a case where growth of the microorganism on the surface of the medium was recognized is shown by +; a case where growth of the microorganism on the surface of the medium was not recognized is shown by −; conditions: agent 50 μg/mL
Procedure: as §1, §2, §3, §4, §5, §6

[4] = system: Staphylococcus aureus (NBRC12732); parameters: key to growth of the microorganism S.a: a case where growth of the microorganism on the surface of the medium was recognized is shown by +; a case where growth of the microorganism on the surface of the medium was not recognized is shown by −; conditions: for growth of the microorganism S.a: agent 50 μg/mL
Procedure: as §1, §2, §3, §4, §5, §6

[5] = data are not shown, effect does not change in the presence of protein

| Compound | growth of the microorganism P.a ([1]; GOT, 5 min) | growth of the microorganism P.a ([1]; GOT, 10 min) | growth of the microorganism P.a ([1]; GOT, 15 min) | growth of the microorganism P.a ([1]; GPT, 5 min) | growth of the microorganism P.a ([1]; GPT, 10 min) | growth of the microorganism P.a ([1]; GPT, 15 min) | growth of the microorganism P.a ([1]; Serum, 5 min) | growth of the microorganism P.a ([1]; Serum, 10 min) | growth of the microorganism P.a ([1]; Serum, 15 min) | growth of the microorganism E.c ([2]; GOT, 5 min) | growth of the microorganism E.c ([2]; GOT, 10 min) | growth of the microorganism E.c ([2]; GOT, 15 min) | growth of the microorganism E.c ([2]; GPT, 5 min) | growth of the microorganism E.c ([2]; GPT, 10 min) | growth of the microorganism E.c ([2]; GPT, 15 min) | growth of the microorganism E.c ([2]; Serum, 5 min) | growth of the microorganism E.c ([2]; Serum, 10 min) | growth of the microorganism E.c ([2]; Serum, 15 min) | growth of the microorganism B.s ([3]; GOT, 5 min) | growth of the microorganism B.s ([3]; GOT, 10 min) | other results |
| --- | --- | --- | --- | --- | --- | --- | --- | --- | --- | --- | --- | --- | --- | --- | --- | --- | --- | --- | --- | --- | --- |
| CCCCCCCCCCCCN(CCCN)CCCN [TAA, N-bis(3-aminopropyl)dodecylamine] | − | − | − | − | − | − | − | − | − | + | + | + | + | + | + | + | + | + | + | + | germicidal activity to Pseudonas aeruginous [1, 5]: high germicidal activity; growth of the microorganism B.s ([3]; GOT, 15 min): +; growth of the microorganism B.s ([3]; GPT, 5 min): +; growth of the microorganism B.s ([3]; GPT, 10 min): +; growth of the microorganism B.s ([3]; GPT, 15 min): +; growth of the microorganism B.s ([3]; Serum, 5 min): +; growth of the microorganism B.s ([3]; Serum, 10 min): +; growth of the microorganism B.s ([3]; Serum, 15 min): +; growth of the microorganism S.a ([4]; GOT, 5 min): −; growth of the microorganism S.a ([4]; GOT, 10 min): −; growth of the microorganism S.a ([4]; GOT, 15 min): −; growth of the microorganism S.a ([4]; GPT, 5 min): −; growth of the microorganism S.a ([4]; GPT, 10 min): −; growth of the microorganism S.a ([4]; GPT, 15 min): −; growth of the microorganism S.a ([4]; Serum, 5 min): −; growth of the microorganism S.a ([4]; Serum, 10 min): −; growth of the microorganism S.a ([4]; Serum, 15 min): −; germicidal activity to Staphylococcus aureus [4, 5]: high germicidal activity |
| benzalkonium chloride [BC, reference compound] | + | + | + | + | + | + | + | + | + | + | + | + | + | + | + | + | + | + | + | + | growth of the microorganism B.s ([3]; GOT, 15 min): +; growth of the microorganism B.s ([3]; GPT, 5 min): +; growth of the microorganism B.s ([3]; GPT, 10 min): +; growth of the microorganism B.s ([3]; GPT, 15 min): +; growth of the microorganism B.s ([3]; Serum, 5 min): +; growth of the microorganism B.s ([3]; Serum, 10 min): +; growth of the microorganism B.s ([3]; Serum, 15 min): +; growth of the microorganism S.a ([4]; GOT, 5 min): −; growth of the microorganism S.a ([4]; GOT, 10 min): −; growth of the microorganism S.a ([4]; GOT, 15 min): −; growth of the microorganism S.a ([4]; GPT, 5 min): −; growth of the microorganism S.a ([4]; GPT, 10 min): −; growth of the microorganism S.a ([4]; GPT, 15 min): −; growth of the microorganism S.a ([4]; Serum, 5 min): +; growth of the microorganism S.a ([4]; Serum, 10 min): +; growth of the microorganism S.a ([4]; Serum, 15 min): + |
| Didecyldimethylammonium adipate [DDAA] | − | − | − | − | − | − | − | − | − | + | + | + | + | + | + | + | + | + | + | + | growth of the microorganism B.s ([3]; GOT, 15 min): +; growth of the microorganism B.s ([3]; GPT, 5 min): +; growth of the microorganism B.s ([3]; GPT, 10 min): +; growth of the microorganism B.s ([3]; GPT, 15 min): +; growth of the microorganism B.s ([3]; Serum, 5 min): +; growth of the microorganism B.s ([3]; Serum, 10 min): +; growth of the microorganism B.s ([3]; Serum, 15 min): +; growth of the microorganism S.a ([4]; GOT, 5 min): −; growth of the microorganism S.a ([4]; GOT, 10 min): −; growth of the microorganism S.a ([4]; GOT, 15 min): −; growth of the microorganism S.a ([4]; GPT, 5 min): −; growth of the microorganism S.a ([4]; GPT, 10 min): −; growth of the microorganism S.a ([4]; GPT, 15 min): −; growth of the microorganism S.a ([4]; Serum, 5 min): −; growth of the microorganism S.a ([4]; Serum, 10 min): −; growth of the microorganism S.a ([4]; Serum, 15 min): − |
